Reference: patent US20250360155A1, “METHOD OF TREATING SPINAL CORD INJURY AND COMPOSITION FOR USE THEREIN” (ACADEMIA SINICA, priority 2022, published 2025)

How the values were obtained:
[1] = tested on: C57BL/6J mice with SCI; assay: Immunofluorescence staining of spinal cord perilesional area after spinal cord contusion; assay type: in vivo, mouse
Description: (§1) Mice were anesthetized by intramuscular injection of Zoletil® (50 mg/kg; tiletamine hydrochloride and zolazepam hydrochloride) and Rompun® (12 mg/kg; xylazine hydrochloride) before the surgery. After laminectomy on the T9-T10 vertebral column, the spinal cord was exposed and contused by a 10 g rod with an impact head of 1.2 mm diameter at the height of 6.25 mm above the T10 spinal cord to allow it to drop using an Impactor model-II spinal cord contusion system (RWD6809911) to cause the contusion injury. In the sham group, surgery procedures were identical except for the spinal contusion. After the injury, the wound was quickly sutured using 4.0 silk thread (Unik Taiwan; New Taipei city, Taiwan). The bladders of mice were manually and gently massaged once a day to avoid retention of urine until the reflexive control of micturition was restored. Cefazolin (300 mg/kg) was given for consecutive three days after surgery to prevent infection. Fourteen days after the surgery, mice were sacrificed for analyses.
(§2) In one example for the treatment of J4, which can be used as an ENT1 inhibitor, male C57BL/6J mice (8-12 weeks old) were divided into three groups: the sham group, the SCI+J4 group and the SCI+vehicle group. Please refer to FIG. 1. In the J4 group, mice were pretreated with 10 mg/kg J4 twice a day for three days before the injury. Following the SCI, J4 (10 mg/kg) was administered to mice twice a day for consecutive 14 days. In vehicle group, mice were treated with 5% DMSO, instead of J4, following the same protocol of the J4-treated group. The sham group received the same treatment as the vehicle group. All mice were maintained on a 12 h light/dark schedule and given food and water ad libitum in the Laboratory Animal Center (an AAALAC accredited experimental animal facility) at National Taiwan University. Procedures involving animals were conducted according to the ARRIVE (Animal Research: Reporting In Vivo Experiments) guidelines.
(§3) In another example for the treatment of JMF 1907 (i.e. the compound of formula (III)), male C57BL/6J mice (8-12 weeks old) were divided into three groups: the JMF1907 group, the methylprednisolone (MPSS) group and the vehicle group. Wherein, JMF1907 (10 mg/kg twice daily for 14 days), methylprednisolone (30 mg/kg 10 min after crush, then at 2, 4, and 6 h after crush), or vehicle (0.5% DMSO, twice daily for 14 days) was administered to said mice.
After being anesthetized by Zoletil® (50 mg/kg) and Rompun® (12 mg/kg), mice were intracardially perfused with ice-cold normal saline. The spinal cord (T9-T11) was removed and soaked in ice-cold 4% paraformaldehyde. The vertebrae were then placed in cassettes for paraffin embedding. The samples were cut into sagittal section of 4 μm and placed in water bath at 42° C. The section was mounted onto slides and stored at room temperature until analysis. After deparaffinization, tissue retrieval was conducted in sodium citrate buffer (pH=6) at 90° C. and the spinal cord slices were then washed with phosphate-buffered saline (PBS). Sections were incubated in antibody dilution buffer (Roche, Basel, Swiss) at room temperature. The slides were immunostained by the following primary antibodies: chicken anti-neuronal nuclear protein (NeuN) (1:2000; Merck-Millipore, Dramstadt, Germany), rabbit anti-ionized calcium-binding adapter molecule-1 (Iba-1) (1:1000; Abcam, Cambridge, MA, USA), or mouse anti-glial fibrillary acidic protein (Gfap) (1:1000; cell signaling, Danvers, Massachusetts, USA) overnight at 4° C. Corresponding secondary antibodies conjugated with Alexa Fluor 488 or Rhodamine (Jackson Immuno Research Laboratories, West Grove, PA, USA) were applied for the visualization of immunolabelling. After being washed with PBST (Phosphate Buffered Saline with Tween® 20) and PBS, the slices were mounted on a mounting gel (DAPI Fluoromount G; Southern Biotech Birmingham, Alabama, USA). Images were acquired by a Zeiss AXIO Imager M1 microscope (Carl Zeiss, Gottingen, Germany). […]

[2] = tested on: C57BL/6J mice with SCI; assay: Nissl staining of spinal cord lesion after spinal cord contusion; assay type: in vivo, mouse; conditions: vs vehicle
Description: as §1
(§4) In one example for the treatment of J4, which can be used as an ENT1 inhibitor, male C57BL/6J mice (8-12 weeks old) were divided into three groups: the sham group, the SCI+J4 group and the SCI+vehicle group. Please refer to FIG. 1. In the J4 group, mice were pretreated with 10 mg/kg J4 twice a day for three days before the injury. […]

[3] = tested on: C57BL/6J mice with SCI; assay: RT-qPCR of inflammatory cytokines in spinal cord after spinal cord contusion; assay type: in vivo, mouse; conditions: J4 10 mg/kg twice a day; perilesional area, 14 days post-injury; vs vehicle
Description: as §1
as §4, with “injury. Following the SCI, J4 (10 mg/kg) was administered to mice twice a day for consecutive 14 days.” for “injury.”
Mice were anesthetized by the inhalation of isoflurane. […] Total RNA isolation, quality check, cDNA synthesis and SYBR green based quantitative real-time PCR assay were performed as described previously.^7 The forward/reverse primer sequences for IL-1β, IL-6, TNF-α, and GAPDH were listed in Table 1. The relative expression of target genes normalized to that of glyceraldehyde 3-phosphate dehydrogenase (GAPDH) was calculated by the comparative Ct (ΔCt) and was expressed as 2−ΔCt. The relative quantity was determined by the formula: 2−ΔΔCt, in which ΔΔCt values were obtained by subtracting the ΔCt values of mice with SCI from the sham controls.

[4] = tested on: C57BL/6J mice with SCI; assay: Western blot of spinal cord (T9-T11) after spinal cord contusion; assay type: in vivo, mouse; conditions: J4 10 mg/kg twice a day
Description: as §1, §2
The protein concentrations of the samples were determined by the Bio-Rad DC Protein Assay Kit (Bio-rad, Hercules, CA, USA). Protein samples (10 μg each) were diluted with loading buffer (200 mM Tris-HCl, 1.43% 2-mercaptoethanol, 0.4% bromophenol blue, and 40% glycerol) and heated at 98° C. The protein samples were then separated with 90 V for 10 minutes, followed by 130 V for 60 minutes on 12% SDS-polyacrylamide gel (for S100a10, c-caspase3 and GAPDH) or 8% SDS-polyacrylamide gel (for C3, NeuN) in running buffer (0.3% Tris base, 1.88% glycine, and 0.1% SDS). After electrophoresis, the gel was transferred onto a nitrocellulose membrane in transfer buffer (0.3% Tris base, 1.88% glycine, and 20% methanol; pH 8.3) with 300 mA for 90 minutes. Nonspecific binding to membrane was blocked by BlockPRO™ 1 Min Protein Free Blocking Buffer (Neihu, Taipei City, Taiwan) at room temperature on shaker at 25 rpm. […] Bound antibodies were detected using Chemiluminescence reagent Plus (PerkinElmer Life Sciences, MA, USA) and Bio-rad ChemiDoc™ XRS+ Systems and Image Lab™ Software to obtain images under appropriate exposure time.

[5] = tested on: C57BL/6J mice with SCI; assay: Behavioral tests (Basso Mouse Scale, footprint analysis) after spinal cord contusion; assay type: in vivo; conditions: vs vehicle
Description: as §1, §2, §3
The motor function after SCI was evaluated from day 3 to day 14 after the surgery by locomotor open-field rating scale on the Basso Mouse Scale (BMS).^6 Scoring ranged from 0 for complete paraplegia to 9 for normal function. The footprint analysis was assessed on day 14 after the surgery. The hindlimbs of the mice were dipped in red and black dye for left and right foot, respectively. […]

[6] = JMF1907 10 mg/kg twice daily for 14 days, vs vehicle
[7] = JMF1907 10 mg/kg twice daily for 14 days

OC[C@H]1O[C@@H](n2cnc3c(NCc4ccc(Br)s4)ncnc32)[C@H](O)[C@@H]1O [J4, N^6-[(5-bromothien-2-yl)methyl]adenosine]
NeuN-positive cells in the perilesional area (immunostaining) ([1]; J4 10 mg/kg twice a day, 14 DPI, vs vehicle): more | intensity of Iba-1-positive cells ([1]; J4 10 mg/kg twice a day, perilesional area, 14 DPI, vs vehicle-treated group): lower | average fluorescence intensity of Gfap ([1]; J4 10 mg/kg twice a day, perilesional area, 14 days post-injury, vs vehicle group): remarkably decreased | loss of spinal cord tissue (lesion volume, Nissl staining) ([2]; J4 10 mg/kg twice a day, 14 days post-injury): significantly reduced | expression of IL-6 (mRNA) [3]: trend of reduction | expression of IL-10 (mRNA) [3]: trend of reduction | expression of TNF-α (mRNA) [3]: significantly reduced | protein level of c-caspase3 ([4]; 14 DPI, vs vehicle): decreased | protein level of NeuN ([4]; 14 DPI, vs vehicle group): higher | TGF-β protein ([4]; vs vehicle): significantly increased | protein level of C3 (A1 astrocyte marker) ([4]; vs vehicle): significantly decreased | protein level of S100a10 (A2 astrocyte marker) ([4]; vs vehicle): increased | stride length (footprint analysis) ([5]; J4 10 mg/kg twice a day, 3 days before and 14 days after SCI, 14 DPI): improved | BMS score ([5]; J4 10 mg/kg twice a day, intraperitoneal, 3 days before injury and 14 days after SCI): improved

OC[C@H]1O[C@@H](n2cnc3c(NCCc4c[nH]c5ccccc45)ncnc32)[C@@H](O)C1O (stereo partly drawn) [JMF1907]
lesion of the SCI (immunofluorescence analysis, Pdgf§ expression) [1, 6]: significantly reduce | level of CD68 (marker for microglia) [1, 6]: significantly reduced | level of Gfap (marker for reactive astrocytes) [1, 6]: significantly reduced | level of Iba-1 (marker for microglia) [1, 6]: significantly reduced | lesion of the SCI (Nissl staining) [2, 7]: significantly reduce | motor function (BMS score) [5, 7]: significantly improve | stride length [5, 7]: significantly improve
